The text below walks through data of patent US12162867B2, “Inhibitors of RNA helicase DHX9 and uses thereof” (ACCENT THERAPEUTICS, INC., priority 2022, dated 2024).

Usually EC50 stands for the concentration giving half of the maximal effect.

One experiment concerns circBRIP1 in HCT116 cells. Briefly: DHX9 circBRIP1 cellular target engagement SYBR Green assay (qPCR). The settings on record: Homo sapiens, HCT-116, circBRIP1, HCT116 cells; SyBr assay (marked ^+); read-out: DHX9 Cellular Target Engagement EC50. It counts as cell-based.
Regarding `CS(=O)(=O)Nc1cc(Cl)cc(NC(=O)c2cnn(-c3ccc(N4CCn5ccnc5C4)cn3)c2)c1` [Example 192], the EC50 was determined as 3600 nM.

`CN1CCN(c2cnc(-n3cc(C(=O)Nc4cc(Cl)cc(NS(C)(=O)=O)c4)cn3)c(OCc3cccnc3)c2)CC1=O` [Example 193]: the EC50 was greater than 10000 nM.

Consider `CS(=O)(=O)Nc1cc(Cl)cc(NC(=O)c2cnn(-c3ncc(N4CCOCC4)cc3OCc3cccnc3)c2)c1` [Example 194], for which the EC50 was determined as 2680 nM.

Turning to `CC(C)(O)COc1cccnc1-n1cc(C(=O)Nc2cc(Cl)cc(NS(C)(=O)=O)c2)cn1` [Example 195], the EC50 was determined as 751 nM.

Regarding `CS(=O)(=O)Nc1cc(Cl)cc(NC(=O)c2cnn(-c3ncccc3Oc3ncccn3)c2)c1` [Example 196], the EC50 stood at 6730 nM.

As to `COc1ccc(-n2cc(C(=O)Nc3cc(Cl)cc(NS(C)(=O)=O)c3)cn2)nc1` [Example 197], the half-maximal effective concentration (EC50) amounted to 2370 nM.

`CS(=O)(=O)Nc1cc(Cl)cc(NC(=O)c2cnn(-c3ccc(S(C)(=O)=O)cn3)c2)c1` [Example 198]: the EC50 was greater than 10000 nM.

Take `CS(=O)(=O)Nc1cc(Cl)cc(NC(=O)c2cnn(-c3ncccc3S(C)(=O)=O)c2)c1` [Example 199]: the EC50 was greater than 10000 nM.

In the case of `CN(C)S(=O)(=O)c1ccc(-n2cc(C(=O)Nc3cc(Cl)cc(NS(C)(=O)=O)c3)cn2)nc1` [Example 200], the concentration giving a half-maximal response (EC50) is 1310 nM.

Take `CP(C)(=O)c1cccnc1-n1cc(C(=O)Nc2cc(Cl)cc(NS(C)(=O)=O)c2)cn1` [Example 201]: the concentration giving a half-maximal response (EC50) was greater than 10000 nM.

For the molecule `CS(=O)(=O)Nc1cc(Cl)cc(NC(=O)c2cnn(-c3ncc(F)cc3OCc3cccc(C#N)c3)c2)c1` [Example 203], the EC50 worked out at 341 nM.

In the case of `CS(=O)(=O)Nc1cc(Cl)cc(NC(=O)c2cnn(-c3ncccc3OCc3nccs3)c2)c1` [Example 205], the EC50 was 841 nM.

Turning to `CS(=O)(=O)Nc1cc(Cl)cc(NC(=O)c2cnn(-c3ncccc3OCc3cn[nH]c3)c2)c1` [Example 206], the EC50 was 1060 nM.

For the molecule `Cc1cc(C(=O)Nc2cc(Cl)cc(NS(C)(=O)=O)c2)cn1-c1ncc(F)cn1` [Example 207], the 50% effective concentration (EC50) amounted to 508 nM.

With `CS(=O)(=O)Nc1cc(Cl)cc(NC(=O)c2cc3ccccn3c2)c1` [Example 209], the EC50 was 3460 nM.

Take `CS(=O)(=O)Nc1cc(Cl)cc(NC(=O)c2cnn(-c3c(F)cccc3OCc3cccc(F)c3)c2)c1` [Example 211]: the EC50 amounted to 189 nM.

Regarding `CSc1ccc(-n2cc(C(=O)Nc3cc(Cl)cc(NS(C)(=O)=O)c3)cn2)nc1` [Example 218], the half-maximal effective concentration (EC50) came out at 1390 nM.

On to `CSc1cccnc1-n1cc(C(=O)Nc2cc(Cl)cc(NS(C)(=O)=O)c2)cn1` [Example 219], for which the EC50 was 265 nM.

For the molecule `CS(=O)(=O)Nc1cc(Cl)cc(NC(=O)c2cc(-c3ncccc3NC(=O)C3CC3)cs2)c1` [Example 220], the EC50 turned out to be 303 nM.

As to `CN(C)C(=O)Cc1cccnc1-c1csc(C(=O)Nc2cc(Cl)cc(NS(C)(=O)=O)c2)c1` [Example 221], the EC50 was found to be 121 nM.

Regarding `CN(C)C(=O)c1cccnc1-c1csc(C(=O)Nc2cc(Cl)cc(NS(C)(=O)=O)c2)c1` [Example 222], the EC50 stood at 200 nM.

On to `CS(=O)(=O)Nc1cc(Cl)cc(NC(=O)c2cc(-c3ncccc3C(F)(F)F)cs2)c1` [Example 223], for which the 50% effective concentration (EC50) worked out at 421 nM.

On to `CCS(=O)(=O)Nc1cc(Cl)cc(NC(=O)c2cc(-c3ncc(F)cc3C)cs2)c1` [Example 226], for which the half-maximal effective concentration (EC50) was 388 nM.

Regarding `CS(=O)(=O)Nc1cc(Cl)cc(NC(=O)c2cc3ccncc3s2)c1` [Example 230], the concentration giving a half-maximal response (EC50) amounted to 7250 nM.

For `COCc1sc(C(=O)Nc2cc(Cl)cc(NS(C)(=O)=O)c2)cc1-c1ccccn1` [Example 234], the EC50 was 1180 nM.

On to `Cc1sc(C(=O)Nc2cc(Cl)cc(NS(C)(=O)=O)c2)cc1-c1cn(Cc2ccccc2)nn1` [Example 235], for which the EC50 was 645 nM.

In the case of `Cc1sc(C(=O)Nc2cc(Cl)cc(NS(C)(=O)=O)c2)cc1-c1cn(-c2ccccc2)nn1` [Example 236], the EC50 came out at 106 nM.

With `CN(c1ncccn1)c1cccnc1-c1csc(C(=O)Nc2cc(Cl)cc(NS(C)(=O)=O)c2)c1` [Example 238], the half-maximal effective concentration (EC50) was 289 nM.

`CS(=O)(=O)Nc1cc(Cl)cc(NC(=O)c2cc(-c3ncccc3Oc3cccnc3)cs2)c1` [Example 239]: the EC50 was determined as 348 nM.

As for `Cc1sc(C(=O)Nc2cc(Cl)cc(NS(C)(=O)=O)c2)cc1-c1c(F)cccc1OCc1ccccc1` [Example 240], the EC50 came out at 228 nM.

For the molecule `CS(=O)(=O)Nc1cc(Cl)cc(NC(=O)c2cc(Br)cs2)c1` [Example 241], the EC50 was 3680 nM.

For the molecule `COC(=O)[C@@H]1CCCN1c1csc(C(=O)Nc2cc(Cl)cc(NS(C)(=O)=O)c2)c1` [Example 242], the EC50 stood at 5020 nM.

Consider `CS(=O)(=O)Nc1cc(Cl)cc(NC(=O)c2cc(C3CCNCC3)cs2)c1` [Example 243], for which the half-maximal effective concentration (EC50) is greater than 10000 nM.

For the molecule `CS(=O)(=O)Nc1cc(Cl)cc(NC(=O)c2cc(N3CCNCC3)cs2)c1` [Example 244], the concentration for a half-maximal effect (EC50) is greater than 10000 nM.

As for `CS(=O)(=O)Nc1cc(Cl)cc(NC(=O)c2cc(N3CCOCC3)cs2)c1` [Example 245], the 50% effective concentration (EC50) is 4310 nM.

Turning to `CS(=O)(=O)Nc1cc(Cl)cc(NC(=O)c2cc(N3CCN(CC(F)(F)F)CC3)cs2)c1` [Example 246], the EC50 is 3930 nM.

Turning to `Cc1cc(C(=O)Nc2cc(Cl)cc(NS(=O)(=O)C3CC3)c2)cn1-c1ccc(N2CCOCC2)cn1` [Example 247], the EC50 stood at 2240 nM.

`Cc1cc(C(=O)Nc2cc(Cl)cc(NS(=O)(=O)C(F)F)c2)cn1-c1ccc(N2CCOCC2)cn1` [Example 248]: the half-maximal effective concentration (EC50) is greater than 10000 nM.

Consider `CCS(=O)(=O)Nc1cc(Cl)cc(NC(=O)c2cc(C)n(-c3ccc(N4CCOCC4)cn3)c2)c1` [Example 249], for which the EC50 is 29.5 nM.

Consider `CS(=O)(=O)Nc1cc(Cl)cc(NC(=O)c2cnn(C3CC4CCC(C3)O4)c2)c1` (centres unmarked) [Example 250], for which the concentration giving a half-maximal response (EC50) is 3550 nM.

`CS(=O)(=O)Nc1cc(Cl)cc(NC(=O)c2cnn(-c3ncccc3OCc3ncc[nH]3)c2)c1` [Example 252]: the EC50 was determined as 1790 nM.

As for `CS(=O)(=O)Nc1cc(Cl)cc(NC(=O)c2cnn(-c3ncccc3OCc3ccn[nH]3)c2)c1` [Example 253], the half-maximal effective concentration (EC50) was determined as 9230 nM.

Regarding `CS(=O)(=O)Nc1cc(Cl)cc(NC(=O)c2cnn(-c3ncccc3OCc3c[nH]cn3)c2)c1` [Example 254], the EC50 was 578 nM.

In the case of `CS(=O)(=O)Nc1cc(Cl)cc(NC(=O)c2cnn(-c3ccccc3-c3cncc(F)c3)c2)c1` [Example 257], the concentration giving a half-maximal response (EC50) was determined as 2610 nM.

For `CS(=O)(=O)Nc1cc(Cl)cc(NC(=O)c2cnn(-c3ncc(N4CC5(COC5)C4)cc3OCc3cc(F)cc(F)c3)c2)c1` [Example 258], the concentration for a half-maximal effect (EC50) was 291 nM.

Regarding `Cc1cnc(-n2cc(C(=O)Nc3cc(Cl)cc(NS(C)(=O)=O)c3)cn2)c(OCc2cnco2)c1` [Example 261], the 50% effective concentration (EC50) came to 1530 nM.

Regarding `CS(=O)(=O)Nc1cc(Cl)cc(NC(=O)c2cnn(-c3ncccc3COc3cncc(F)c3)c2)c1` [Example 262], the EC50 is 439 nM.

Turning to `CS(=O)(=O)Nc1cc(Cl)cc(NC(=O)c2cnn(-c3ccccc3Oc3ncccn3)c2)c1` [Example 263], the EC50 was greater than 10000 nM.

For the molecule `CS(=O)(=O)Nc1cc(Cl)cc(NC(=O)c2cnn(-c3ccccc3Oc3cccnc3)c2)c1` [Example 264], the EC50 worked out at 3540 nM.

`CS(=O)(=O)Nc1cc(Cl)cc(NC(=O)c2cnn(-c3ccccc3Oc3cccc(F)c3)c2)c1` [Example 265]: the half-maximal effective concentration (EC50) was 4650 nM.

In the case of `CN1CCC(c2ccc(-n3cc(C(=O)Nc4cc(Cl)cc(NS(C)(=O)=O)c4)cn3)nc2)CC1=O` (centres unmarked) [Example 266], the half-maximal effective concentration (EC50) is 1160 nM.

With `CS(=O)(=O)Nc1cc(Cl)cc(NC(=O)c2cc(C(F)(F)F)n(-c3ccc(F)cn3)c2)c1` [Example 267], the EC50 is 2260 nM.

Regarding `Cn1cc(C(=O)Nc2cc(Cl)cc(NS(C)(=O)=O)c2)cc1-c1ncc(F)cc1OCc1cnco1` [Example 268], the concentration giving a half-maximal response (EC50) stood at 182 nM.

Consider `Cc1cc(C(=O)Nc2cc(Cl)cc(NS(C)(=O)=O)c2)cn1-c1ccc(N(C)C2CCOC2)cn1` (centres unmarked) [Example 269], for which the EC50 was determined as 37 nM.

For the molecule `Cc1cc(C(=O)Nc2cc(Cl)cc(NS(C)(=O)=O)c2)cn1-c1ccc(N2CCCC2)cn1` [Example 270], the concentration for a half-maximal effect (EC50) was 101 nM.

Turning to `CS(=O)(=O)Nc1cc(Cl)cc(NC(=O)c2cc(C(F)(F)F)n(-c3ccc(N4CCOCC4)cn3)c2)c1` [Example 271], the EC50 was found to be 761 nM.

Take `Cc1cc(C(=O)Nc2cc(Cl)cc(NS(C)(=O)=O)c2)cn1-c1ccc(N2CCOC(C)(C)C2)cn1` [Example 272]: the EC50 came out at 31.1 nM.

Regarding `Cn1cc(C(=O)Nc2cc(Cl)cc(NS(C)(=O)=O)c2)cc1-c1ccc(N2CCOCC2)cn1` [Example 273], the EC50 turned out to be 37.5 nM.

Turning to `CCn1cc(C(=O)Nc2cc(Cl)cc(NS(C)(=O)=O)c2)cc1-c1ccc(N2CCOCC2)cn1` [Example 274], the EC50 worked out at 97.9 nM.

As to `CS(=O)(=O)Nc1cc(Cl)cc(NC(=O)c2cc(-c3ccc(N4CCOCC4)cn3)n(CC(F)(F)F)c2)c1` [Example 275], the half-maximal effective concentration (EC50) is 190 nM.

`CS(=O)(=O)Nc1cc(Cl)cc(NC(=O)c2cc(-c3ccc(N4CC5(COC5)C4)cn3)n(CC(F)(F)F)c2)c1` [Example 278]: the half-maximal effective concentration (EC50) was found to be 251 nM.

For `Cc1cc(C(=O)Nc2cc(Cl)cc(NS(C)(=O)=O)c2)cn1C1CCCC1` [Example 282], the 50% effective concentration (EC50) is 1880 nM.

For the molecule `Cc1cc(C(=O)Nc2cc(Cl)cc(NS(C)(=O)=O)c2)cn1-c1ccc(N2CCS(=O)(=O)CC2)cn1` [Example 285], the EC50 came out at 503 nM.

Take `CS(=O)(=O)Nc1cc(Cl)cc(NC(=O)c2cc3cnccc3s2)c1` [Example 288]: the 50% effective concentration (EC50) was 7800 nM.

Turning to `CS(=O)(=O)Nc1cc(Cl)cc(NC(=O)c2cc3ncccc3s2)c1` [Example 289], the EC50 came to 6550 nM.

`Cc1cncc2cc(C(=O)Nc3cc(Cl)cc(NS(C)(=O)=O)c3)sc12` [Example 290]: the EC50 was greater than 10000 nM.

As for `CS(=O)(=O)Nc1cc(Cl)cc(NC(=O)c2cc3cccnn3c2)c1` [Example 292], the half-maximal effective concentration (EC50) came to 2300 nM.

Staying with this experiment, now noted: circBRIP1, HCT116 cells; SyBr assay (marked ^+); read-out: DHX9 Cellular Target Engagement EC50.
`CCc1sc(C(=O)Nc2cc(Cl)cc(NS(C)(=O)=O)c2)cc1-c1ccccn1` [Example 232]: the EC50 is 61 nM.
